The record followed here is BindingDB's records for doi:10.1021/jm00055a002 (Eli Lilly, 1993).

Where a SMILES comes first, the peptide text is derived from it. [ ]: non-standard residue; d: D form. The star is where a group is joined. dHpg = N[C@@H](C(=O)O)c1ccc(O)cc1; Boc = CC(C)(C)OC(=O)*

In the first experiment the target is Tissue-type plasminogen activator (Homo sapiens) (UniProt P00750). Nature of the experiment: Inhibitory activity against tissue-type plasminogen activator.
Tissue-type plasminogen activator (Homo sapiens), sequence (P00750 whole entry, looked up): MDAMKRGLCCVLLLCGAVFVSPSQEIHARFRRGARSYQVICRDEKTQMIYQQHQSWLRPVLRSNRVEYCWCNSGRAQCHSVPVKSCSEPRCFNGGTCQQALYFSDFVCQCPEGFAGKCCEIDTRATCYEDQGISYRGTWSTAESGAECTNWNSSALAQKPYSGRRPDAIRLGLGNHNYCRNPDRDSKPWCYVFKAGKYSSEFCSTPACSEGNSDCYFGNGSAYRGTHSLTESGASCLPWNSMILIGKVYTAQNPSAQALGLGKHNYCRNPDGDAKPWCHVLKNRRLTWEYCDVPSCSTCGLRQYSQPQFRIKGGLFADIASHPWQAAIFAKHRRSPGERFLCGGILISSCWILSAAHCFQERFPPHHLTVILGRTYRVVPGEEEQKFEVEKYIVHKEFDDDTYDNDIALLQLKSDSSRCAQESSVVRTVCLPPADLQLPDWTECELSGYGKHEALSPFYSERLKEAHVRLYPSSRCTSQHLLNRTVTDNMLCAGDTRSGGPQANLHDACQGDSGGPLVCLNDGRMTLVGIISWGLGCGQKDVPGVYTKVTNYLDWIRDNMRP
The term IC50 denotes the point on the concentration scale where inhibition reaches its midpoint. `N=C(N)NCCC[C@@H](C=O)NC(=O)[C@@H]1CCCN1C(=O)C1CCc2ccccc2N1` (stereo not given in full) [1-(1,2,3,4-Tetrahydro-quinoline-2-carbonyl)-pyrrolidine-2-carboxylic acid (1-formyl-4-guanidino-butyl)-amide] showed an IC50 of 660 µM.

Consider `CC(C)(C)OC(=O)N[C@@H](C(=O)N1CCC[C@H]1C(=O)N[C@H](C=O)CCCN=C(N)N)c1ccc(O)cc1` [[2-[2-(1-Formyl-4-guanidino-butylcarbamoyl)-pyrrolidin-1-yl]-1-(4-hydroxy-phenyl)-2-oxo-ethyl]-carbamic acid tert-butyl ester] (Boc-[dHpg]-Pro-Arg-aldehyde), for which the IC50 was found to be 16 µM.

For a further experiment the target is unchanged. The experiment in a line: Compound was tested in vitro for inhibitory activity against t-PA (tissue plasminogen activator).
With `CC(C)(C)OC(=O)N[C@H](C(=O)N1CCC[C@H]1C(=O)N[C@H](C=O)CCCN=C(N)N)c1ccc(F)cc1` [{1-(4-Fluoro-phenyl)-2-[2-(1-formyl-4-guanidino-butylcarbamoyl)-pyrrolidin-1-yl]-2-oxo-ethyl}-carbamic acid tert-butyl ester], the IC50 turned out to be 91 µM.

Consider `CN[C@@H](C(=O)N1CCC[C@H]1C(=O)N[C@H](C=O)CCCNC(=N)N)c1ccccc1` [(S)-1-((R)-2-Methylamino-2-phenyl-acetyl)-pyrrolidine-2-carboxylic acid ((S)-1-formyl-4-guanidino-butyl)-amide], for which inhibition was half-maximal at 42 µM (IC50).

In turn, `CC(C)(C)OC(=O)N[C@@H](C(=O)N1CCC[C@H]1C(=O)NC(C=O)CCCNC(=N)N)c1ccc2ccccc2c1` (stereo not given in full) [{2-[2-(1-Formyl-4-guanidino-butylcarbamoyl)-pyrrolidin-1-yl]-1-naphthalen-2-yl-2-oxo-ethyl}-carbamic acid tert-butyl ester] had an IC50 of 12 µM. Compared with the last compound, the IC50 is about 3.5-fold lower.

`CC(C)(C)OC(=O)NC(C(=O)N1CCC[C@H]1C(=O)NC(C=O)CCCNC(=N)N)c1cccc(C(F)(F)F)c1` (stereo not given in full) [[2-[2-(1-Formyl-4-guanidino-butylcarbamoyl)-pyrrolidin-1-yl]-2-oxo-1-(3-trifluoromethyl-phenyl)-ethyl]-carbamic acid tert-butyl ester] returned an IC50 of 15 µM. The IC50 values of the last two compounds are within 1.5-fold of each other.

As for `CO[C@H](C(=O)N1CCC[C@H]1C(=O)NC(C=O)CCCNC(=N)N)c1ccccc1` (stereo not given in full) [1-(2-Methoxy-2-phenyl-acetyl)-pyrrolidine-2-carboxylic acid (1-formyl-4-guanidino-butyl)-amide], the IC50 is 860 µM.

With `CC(C)(C)OC(=O)N[C@@H](C(=O)N1CCC[C@H]1C(=O)N[C@H](C=O)CCCN=C(N)N)c1ccc(F)cc1` [{1-(4-Fluoro-phenyl)-2-[2-(1-formyl-4-guanidino-butylcarbamoyl)-pyrrolidin-1-yl]-2-oxo-ethyl}-carbamic acid tert-butyl ester], inhibition was half-maximal at 18 µM (IC50).

Consider `CC(C)(C)OC(=O)N[C@@H](C(=O)N1CCC[C@H]1C(=O)NC(C=O)CCCNC(=N)N)c1cccc2ccccc12` (stereo not given in full) [{2-[2-(1-Formyl-4-guanidino-butylcarbamoyl)-pyrrolidin-1-yl]-1-naphthalen-1-yl-2-oxo-ethyl}-carbamic acid tert-butyl ester], for which half-maximal inhibition (IC50) required 20 µM. The IC50 values of the last two compounds are within 1.5-fold of each other.

The compound `CC(C)(C)OC(=O)NC(C(=O)N1CCC[C@H]1C(=O)NC(C=O)CCCNC(=N)N)c1ccc(Cl)c(Cl)c1` (stereo not given in full) [{1-(3,4-Dichloro-phenyl)-2-[2-(1-formyl-4-guanidino-butylcarbamoyl)-pyrrolidin-1-yl]-2-oxo-ethyl}-carbamic acid tert-butyl ester] gave an IC50 of 31 µM. This IC50 is about 1.6-fold higher than that of the compound before.
